Test results taken from ChEMBL document CHEMBL5316337, “Critical Role of Position 10 Residue in the Polymyxin Antimicrobial Activity” (J Med Chem, 2023).
≈ marks a conversion by molar mass, not a printed value.

How the values were obtained:
Format in all cases: functional
Pseudomonas aeruginosa [1] = assay: Antibacterial activity against polymyxin-susceptible Pseudomonas aeruginosa FADD1-PA025 clinical isolates assessed as reduction in bacterial growth by broth microdilution method
Enterobacter cloacae [2] = assay: Antibacterial activity against polymyxin-susceptible Enterobacter cloacae FADD1-EC006 clinical isolates assessed as reduction in bacterial growth by broth microdilution method
Klebsiella pneumoniae [3] = assay: Antibacterial activity against polymyxin-susceptible Klebsiella pneumoniae ATCC 700721 clinical isolates assessed as reduction in bacterial growth by broth microdilution method
Pseudomonas aeruginosa [4] = assay: Antibacterial activity against polymyxin-susceptible Pseudomonas aeruginosa ATCC 27853 clinical isolates assessed as reduction in bacterial growth by broth microdilution method
Pseudomonas aeruginosa [5] = assay: Antibacterial activity against Carbapenem-resistant Pseudomonas aeruginosa FADD1-PA022 clinical isolates assessed as reduction in bacterial growth by broth microdilution method
Klebsiella pneumoniae [6] = assay: Antibacterial activity against Carbapenem-resistant Klebsiella pneumoniae FADD1-KP022 clinical isolates assessed as reduction in bacterial growth by broth microdilution method
Pseudomonas aeruginosa [7] = assay: Antibacterial activity against Carbapenem-resistant Pseudomonas aeruginosa FADD1-PA001 clinical isolates assessed as reduction in bacterial growth by broth microdilution method
Acinetobacter baumannii [8] = assay: Antibacterial activity against polymyxin-susceptible Acinetobacter baumannii ATCC 17978 clinical isolates assessed as reduction in bacterial growth by broth microdilution method
Pseudomonas aeruginosa [9] = assay: Antibacterial activity against polymyxin-susceptible Pseudomonas aeruginosa FADD1-PA038 clinical isolates assessed as reduction in bacterial growth by broth microdilution method
Acinetobacter baumannii [10] = assay: Antibacterial activity against Carbapenem-resistant Acinetobacter baumannii FADD1-AB030 clinical isolates assessed as reduction in bacterial growth by broth microdilution method
Enterobacter cloacae [11] = assay: Antibacterial activity against polymyxin-susceptible Enterobacter cloacae FADD1-EC003 clinical isolates assessed as reduction in bacterial growth by broth microdilution method
Enterobacter cloacae [12] = assay: Antibacterial activity against polymyxin-susceptible Enterobacter cloacae FADD1-EC001 clinical isolates assessed as reduction in bacterial growth by broth microdilution method
Klebsiella pneumoniae [13] = assay: Antibacterial activity against Carbapenem-resistant Klebsiella pneumoniae FADD1-KP032 clinical isolates assessed as reduction in bacterial growth by broth microdilution method
Klebsiella pneumoniae [14] = assay: Antibacterial activity against Carbapenem-resistant Klebsiella pneumoniae FADD1-KP065 clinical isolates assessed as reduction in bacterial growth by broth microdilution method
Klebsiella pneumoniae [15] = assay: Antibacterial activity against Carbapenem-resistant Klebsiella pneumoniae BM1 clinical isolates assessed as reduction in bacterial growth by broth microdilution method
Acinetobacter baumannii [16] = assay: Antibacterial activity against polymyxin-susceptible Acinetobacter baumannii ATCC 19606 clinical isolates assessed as reduction in bacterial growth by broth microdilution method
Acinetobacter baumannii [17] = assay: Antibacterial activity against Carbapenem-resistant Acinetobacter baumannii FADD1-AB034 clinical isolates assessed as reduction in bacterial growth by broth microdilution method

In the case of `C/C=C1/NC(=O)[C@H](CCN)NC(=O)[C@H](CCN)NC(=O)[C@H](CC(C)C)NC(=O)[C@@H](Cc2ccccc2)NC(=O)[C@H](CCN)NC(=O)[C@@H](NC(=O)[C@H](CCN)NC(=O)[C@@H](NC(=O)[C@H](CCN)NC(=O)CCCC[C@@H](C)CC)[C@@H](C)O)CCNC1=O`, the MIC (Pseudomonas aeruginosa [1]) is reported as 2 µg/mL (≈ 1.69 µM), the MIC (Enterobacter cloacae [2]) is reported as greater than 32 µg/mL and the MIC (Klebsiella pneumoniae [3]) is reported as 16 µg/mL (≈ 13.5 µM). For the same molecule, the MIC (Pseudomonas aeruginosa [4]) was 2 µg/mL (≈ 1.69 µM), the MIC (Pseudomonas aeruginosa [5]) was 1 µg/mL (≈ 0.844 µM) and the MIC (Klebsiella pneumoniae [6]) was 2 µg/mL (≈ 1.69 µM). For the same molecule, the MIC (Pseudomonas aeruginosa [7]) was 4 µg/mL (≈ 3.37 µM), the MIC (Acinetobacter baumannii [8]) was 1 µg/mL (≈ 0.844 µM) and the MIC (Pseudomonas aeruginosa [9]) was 16 µg/mL (≈ 13.5 µM). The MIC (Acinetobacter baumannii [10]) was 2 µg/mL (≈ 1.69 µM), the MIC (Enterobacter cloacae [11]) was greater than 32 µg/mL and the MIC (Enterobacter cloacae [12]) was greater than 32 µg/mL. For the same molecule, the MIC (Klebsiella pneumoniae [13]) was 8 µg/mL (≈ 6.75 µM), the MIC (Klebsiella pneumoniae [14]) was 4 µg/mL (≈ 3.37 µM) and the MIC (Klebsiella pneumoniae [15]) was 8 µg/mL (≈ 6.75 µM). It also gave an MIC (Acinetobacter baumannii [16]) of 4 µg/mL (≈ 3.37 µM) and an MIC (Acinetobacter baumannii [17]) of 2 µg/mL (≈ 1.69 µM).
Work on `CC[C@H](C)CCCCC(=O)N[C@@H](CCN)C(=O)N[C@H](C(=O)N[C@@H](CCN)C(=O)N[C@H]1CCNC(=O)[C@H](CCCN)NC(=O)[C@H](CCN)NC(=O)[C@H](CCN)NC(=O)[C@H](CC(C)C)NC(=O)[C@@H](Cc2ccccc2)NC(=O)[C@H](CCN)NC1=O)[C@@H](C)O` yielded an MIC (Pseudomonas aeruginosa [1]) greater than 32 µg/mL, an MIC (Enterobacter cloacae [2]) greater than 32 µg/mL and an MIC (Klebsiella pneumoniae [3]) of 32 µg/mL (≈ 26.3 µM). The MIC (Pseudomonas aeruginosa [4]) was greater than 32 µg/mL, the MIC (Pseudomonas aeruginosa [5]) was greater than 32 µg/mL and the MIC (Klebsiella pneumoniae [6]) was 4 µg/mL (≈ 3.29 µM). The MIC (Pseudomonas aeruginosa [7]) was greater than 32 µg/mL, the MIC (Acinetobacter baumannii [8]) was 4 µg/mL (≈ 3.29 µM) and the MIC (Pseudomonas aeruginosa [9]) was greater than 32 µg/mL. For the same molecule, the MIC (Acinetobacter baumannii [10]) was 16 µg/mL (≈ 13.2 µM), the MIC (Enterobacter cloacae [11]) was 32 µg/mL (≈ 26.3 µM) and the MIC (Enterobacter cloacae [12]) was 32 µg/mL (≈ 26.3 µM). For the same molecule, the MIC (Klebsiella pneumoniae [13]) was 32 µg/mL (≈ 26.3 µM), the MIC (Klebsiella pneumoniae [14]) was 4 µg/mL (≈ 3.29 µM) and the MIC (Klebsiella pneumoniae [15]) was greater than 32 µg/mL. For the same molecule, the MIC (Acinetobacter baumannii [16]) was 16 µg/mL (≈ 13.2 µM) and the MIC (Acinetobacter baumannii [17]) was 8 µg/mL (≈ 6.58 µM).
`CC[C@H](C)CCCCC(=O)N[C@@H](CCN)C(=O)N[C@H](C(=O)N[C@@H](CCN)C(=O)N[C@H]1CCNC(=O)[C@H](CCN)NC(=O)[C@H](CCN)NC(=O)[C@H](CCN)NC(=O)[C@H](CC(C)C)NC(=O)[C@@H](Cc2ccccc2)NC(=O)[C@H](CCN)NC1=O)[C@@H](C)O` gave an MIC (Pseudomonas aeruginosa [1]) greater than 32 µg/mL, an MIC (Enterobacter cloacae [2]) greater than 32 µg/mL and an MIC (Klebsiella pneumoniae [3]) greater than 32 µg/mL. It also gave an MIC (Pseudomonas aeruginosa [4]) greater than 32 µg/mL, an MIC (Pseudomonas aeruginosa [5]) greater than 32 µg/mL and an MIC (Klebsiella pneumoniae [6]) of 2 µg/mL (≈ 1.66 µM). For the same molecule, the MIC (Pseudomonas aeruginosa [7]) was greater than 32 µg/mL, the MIC (Acinetobacter baumannii [8]) was 16 µg/mL (≈ 13.3 µM) and the MIC (Pseudomonas aeruginosa [9]) was greater than 32 µg/mL. It also gave an MIC (Acinetobacter baumannii [10]) of 8 µg/mL (≈ 6.65 µM), an MIC (Enterobacter cloacae [11]) greater than 32 µg/mL and an MIC (Enterobacter cloacae [12]) greater than 32 µg/mL. For the same molecule, the MIC (Klebsiella pneumoniae [13]) was 32 µg/mL (≈ 26.6 µM), the MIC (Klebsiella pneumoniae [14]) was 4 µg/mL (≈ 3.33 µM) and the MIC (Klebsiella pneumoniae [15]) was greater than 32 µg/mL. The MIC (Acinetobacter baumannii [16]) was 16 µg/mL (≈ 13.3 µM) and the MIC (Acinetobacter baumannii [17]) was 16 µg/mL (≈ 13.3 µM).
`CC[C@H](C)CCCCC(=O)N[C@@H](CCN)C(=O)N[C@H](C(=O)N[C@@H](CCN)C(=O)N[C@H]1CCNC(=O)[C@@H]([C@H](C)O)NC(=O)[C@H](CCN)NC(=O)[C@H](CCN)NC(=O)[C@H](CC(C)C)NC(=O)[C@@H](Cc2ccccc2)NC(=O)[C@H](CCN)NC1=O)[C@@H](C)O` showed an MIC (Pseudomonas aeruginosa [1]) of 16 µg/mL (≈ 13.3 µM), an MIC (Enterobacter cloacae [2]) greater than 32 µg/mL and an MIC (Klebsiella pneumoniae [3]) greater than 32 µg/mL. It also gave an MIC (Pseudomonas aeruginosa [4]) of 32 µg/mL (≈ 26.6 µM), an MIC (Pseudomonas aeruginosa [5]) of 2 µg/mL (≈ 1.66 µM) and an MIC (Klebsiella pneumoniae [6]) greater than 32 µg/mL. For the same molecule, the MIC (Pseudomonas aeruginosa [7]) was greater than 32 µg/mL, the MIC (Acinetobacter baumannii [8]) was 4 µg/mL (≈ 3.32 µM) and the MIC (Pseudomonas aeruginosa [9]) was greater than 32 µg/mL. It also gave an MIC (Acinetobacter baumannii [10]) greater than 32 µg/mL, an MIC (Enterobacter cloacae [11]) greater than 32 µg/mL and an MIC (Enterobacter cloacae [12]) greater than 32 µg/mL. The MIC (Klebsiella pneumoniae [13]) was greater than 32 µg/mL, the MIC (Klebsiella pneumoniae [14]) was greater than 32 µg/mL and the MIC (Klebsiella pneumoniae [15]) was greater than 32 µg/mL. The MIC (Acinetobacter baumannii [16]) was greater than 32 µg/mL and the MIC (Acinetobacter baumannii [17]) was greater than 32 µg/mL.
`CC[C@H](C)CCCCC(=O)N[C@@H](CCN)C(=O)N[C@H](C(=O)N[C@@H](CCN)C(=O)N[C@H]1CCNC(=O)[C@H](CC(N)=O)NC(=O)[C@H](CCN)NC(=O)[C@H](CCN)NC(=O)[C@H](CC(C)C)NC(=O)[C@@H](Cc2ccccc2)NC(=O)[C@H](CCN)NC1=O)[C@@H](C)O` showed an MIC (Pseudomonas aeruginosa [1]) of 4 µg/mL (≈ 3.29 µM), an MIC (Enterobacter cloacae [2]) greater than 32 µg/mL and an MIC (Klebsiella pneumoniae [3]) greater than 32 µg/mL. For the same molecule, the MIC (Pseudomonas aeruginosa [4]) was 32 µg/mL (≈ 26.3 µM), the MIC (Pseudomonas aeruginosa [5]) was 1 µg/mL (≈ 0.822 µM) and the MIC (Klebsiella pneumoniae [6]) was 8 µg/mL (≈ 6.58 µM). It also gave an MIC (Pseudomonas aeruginosa [7]) greater than 32 µg/mL, an MIC (Acinetobacter baumannii [8]) of 16 µg/mL (≈ 13.2 µM) and an MIC (Pseudomonas aeruginosa [9]) greater than 32 µg/mL. For the same molecule, the MIC (Acinetobacter baumannii [10]) was greater than 32 µg/mL, the MIC (Enterobacter cloacae [11]) was 32 µg/mL (≈ 26.3 µM) and the MIC (Enterobacter cloacae [12]) was greater than 32 µg/mL. The MIC (Klebsiella pneumoniae [13]) was greater than 32 µg/mL, the MIC (Klebsiella pneumoniae [14]) was 8 µg/mL (≈ 6.58 µM) and the MIC (Klebsiella pneumoniae [15]) was greater than 32 µg/mL. For the same molecule, the MIC (Acinetobacter baumannii [16]) was greater than 32 µg/mL and the MIC (Acinetobacter baumannii [17]) was greater than 32 µg/mL.
Work on `CC[C@H](C)CCCCC(=O)N[C@@H](CCN)C(=O)N[C@H](C(=O)N[C@@H](CCN)C(=O)N[C@H]1CCNC(=O)[C@H](C(C)C)NC(=O)[C@H](CCN)NC(=O)[C@H](CCN)NC(=O)[C@H](CC(C)C)NC(=O)[C@@H](Cc2ccccc2)NC(=O)[C@H](CCN)NC1=O)[C@@H](C)O` yielded an MIC (Pseudomonas aeruginosa [1]) of 1 µg/mL (≈ 0.832 µM), an MIC (Enterobacter cloacae [2]) of 16 µg/mL (≈ 13.3 µM) and an MIC (Klebsiella pneumoniae [3]) of 8 µg/mL (≈ 6.66 µM). The MIC (Pseudomonas aeruginosa [4]) was 1 µg/mL (≈ 0.832 µM), the MIC (Pseudomonas aeruginosa [5]) was 1 µg/mL (≈ 0.832 µM) and the MIC (Klebsiella pneumoniae [6]) was 0.25 µg/mL (≈ 0.208 µM). It also gave an MIC (Pseudomonas aeruginosa [7]) of 1 µg/mL (≈ 0.832 µM), an MIC (Acinetobacter baumannii [8]) of 4 µg/mL (≈ 3.33 µM) and an MIC (Pseudomonas aeruginosa [9]) of 2 µg/mL (≈ 1.66 µM). For the same molecule, the MIC (Acinetobacter baumannii [10]) was 2 µg/mL (≈ 1.66 µM), the MIC (Enterobacter cloacae [11]) was 2 µg/mL (≈ 1.66 µM) and the MIC (Enterobacter cloacae [12]) was 4 µg/mL (≈ 3.33 µM). The MIC (Klebsiella pneumoniae [13]) was 1 µg/mL (≈ 0.832 µM), the MIC (Klebsiella pneumoniae [14]) was 1 µg/mL (≈ 0.832 µM) and the MIC (Klebsiella pneumoniae [15]) was 1 µg/mL (≈ 0.832 µM). It also gave an MIC (Acinetobacter baumannii [16]) of 4 µg/mL (≈ 3.33 µM) and an MIC (Acinetobacter baumannii [17]) of 4 µg/mL (≈ 3.33 µM).
